Reference: patent US9486422B2, “Small molecule inhibitors of Mcl-1 and the uses of thereof” (THE REGENTS OF THE UNIVERSITY OF MICHIGAN, priority 2011, dated 2016)
Like-named read-outs stand apart in the source and are kept apart here.

How the values were obtained:
Bcl-xL = Bcl-xL (Homo sapiens, UniProt Q07817, DEL45-85); experiment: FP-based binding assay, Bcl-xL
[1] = Metabolic stability assay, liver microsomes; assay type: in vitro ADME, mice; conditions: mouse, pooled mouse liver microsomes; 1 μM compound, 1.2 mg/ml microsomes, 37° C.
Procedure: Metabolic stability of UMI-77 was determined using the pooled mice liver microsomes (XenoTech, LLC). The conditions of the assay and quantification of UMI-77 in different time points are provided.
The β-NADPH (Sigma-Aldrich) was dissolved in 0.1 M phosphate buffer containing 3.3 mM MgCl2 right before use. The pooled mice liver microsomes (XenoTech, LLC) were diluted with 0.1 M phosphate buffer containing 3.3 mM MgCl2, followed by adding the reduced β-NADPH solution. After initiating the enzymes by adding β-NADPH, the mixture was incubated at 37° C. for […] The tested compound UMI-77 was added into the mixture and incubated at 37° C. The final concentrations of the compound, microsomes, β-NADPH, phosphate buffer and MgCl2 were 1 μM, 1.2 mg/ml, 1 mM, 0.1 M, and 3.3 mM, respectively. An aliquot of 40 μl of mixture was collected at 0, 5, 10, 15, 30, 45 and 60 min and the reaction was stopped immediately by adding 120 μl of ice-cold acetonitrile containing an internal standard (100 mg/mL). The incubation solution was centrifuged at 14000 rpm for 5 minutes to precipitate protein. The UMI-77 concentration was determined by LC/MS/MS (Agilent 1200 HPLC system, Agilent Technologies and QTRAP 3200 mass spectrometer, Applied Biosystems/MDS Sciex). UMI-77 was detected under negative ionization mode and the multiple reaction monitoring (MRM) ion transition was m/z 468.1→221.0.

AsPc1 = experiment: Cell growth inhibition (WST-8), AsPc1; assay type: cell-based; conditions: Homo sapiens, ASPC1, 96 h; 4 days treatment
Procedure: (§1) Human PC cell lines AsPC-1, BxPC-3 and Capan-2 were cultured in RPMI 1640 medium, while Panc-1 and MiaPaCa were cultured in DMEM medium (Life Technologies), all supplemented with 10% fetal bovine serum (Thermo Scientific HyClone). The rate of cell growth inhibition after treatment with increasing concentrations of the tested compounds was determined by WST-8 assay as described in the manufacturers protocol (Dojindo Molecular Technologies Inc.).

A1/Bfl-1 = target: T1, A1/Bfl-1 (Homo sapiens, UniProt Q16548); experiment: FP-based binding assay, A1/Bfl-1
T1 sequence (Q16548 1-151): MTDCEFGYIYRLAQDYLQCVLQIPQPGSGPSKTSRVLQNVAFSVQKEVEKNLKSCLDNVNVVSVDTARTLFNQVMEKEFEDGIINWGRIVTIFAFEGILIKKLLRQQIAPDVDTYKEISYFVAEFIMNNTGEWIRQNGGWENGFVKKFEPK

MiaPaCa-2 = experiment: Cell growth inhibition (WST-8), MiaPaCa-2; assay type: cell-based; conditions: Homo sapiens, MIA PaCa-2, 96 h; 4 days treatment
Procedure: as §1

BxPC-3 xenograft = BxPC-3 xenograft efficacy in SCID mice; assay type: in vivo; conditions: 60 mg/kg i.v., 5 days a week for two weeks
Procedure: For BxPC-3 subcutaneous model, 10×10^6 cells were subcutaneously injected into the flanks of 4-5 week old female severe combined immune deficient mice (ICR-SCID) (Taconic Farms) using 26 G ½ Precision Glide needles (Becton Dickinson). […] Tumors were measured twice weekly using a caliper and expressed in mg. To prevent any pain or discomfort, mice were euthanized and their tumors removed once they reached ˜1800 mg burden. […] Tumor weight was recorded throughout the treatment period using previously described methods.

Mcl-1 = Mcl-1 (Homo sapiens, UniProt Q07820); experiment: FP-based binding assay, Mcl-1
[2] = system: wild type (WT) murine embryonic fibroblasts (MEF); experiment: Induction of apoptosis in MEF WT cells; assay type: cell-based; conditions: 10 μM, 24 h
[3] = target: T2, cellular Mcl-1 protein (2LMP cell lysate) (Homo sapiens, UniProt Q07820); experiment: Biotin-streptavidin pull-down with biotin-labeled Noxa BH3 peptide; assay type: binding
T2 construct: endogenous in cells; host or cells: 2LMP (subclone of MDA-MB-231) cell lysate
Procedure: Human breast cancer 2LMP cells, a subclone of the MDA-MB-231 cell line, were lysed in CHAPS buffer (10 mM HEPES (pH 7.4), 2.5 mM EDTA, 150 mM NaCl, 1.0% CHAP). Pre-cleared cell lysates were incubated with different concentrations of tested compounds, followed by incubation with biotinylated Noxa BH3 peptide (residues 18-43) and streptavidin-agarose beads to pull-down Mcl-1 protein bound to Noxa peptide. Beads were washed with CHAPS buffer, and Mcl-1 protein was eluted by boiling in SDS-PAGE sample buffer and analyzed by Western blotting using Mcl-1 antibody (Santa Cruz). DMSO alone was used as a control for nonspecific pull-down.

[4] = system: bone marrow derived cells from patients with multiple myeloma; experiment: Cellular viability (trypan blue), multiple myeloma patient cells; assay type: cell-based; conditions: Homo sapiens, 0-10 μM, 0-72 hrs
From the text: Blood or bone marrow samples from multiple myeloma patients was obtained from treated or untreated patients after informed consent. Plasma cells were obtained after gradient density centrifugation using Ficoll Hypaque. Some samples were purified for C138^+ population using flow cytometry. In all cases, purity of the plasma cells was higher than 90%, as assessed by morphology.
Isolated MM cells were maintained in RPMI 1640 medium supplemented with 10% fetal bovine serum (Hyclone Laboratories, Logan, Utah) and 1% Penicillin-Streptomycin (Invitrogen, Carlsbad, Calif.), at 37° C. in a humidified incubator with 5% CO2. […] The number of viable cells was determined by trypan blue exclusion test with trypan blue (0.4%) purchased from Sigma Chemical Co. (St. Louis, Mo.). All experiments are performed in triplicate and statistical analysis was done using the t test (two tailed) with 95% confidence intervals between treated and untreated samples. P<0.05 was used to indicate statistical significance.

Bcl-2 [5] = target: T3, Bcl-2 (Homo sapiens, UniProt P10415); experiment: FP-based binding assay, Bcl-2; conditions: read-out: Bcl-2 Ki ± SD
T3 construct: His-tagged proteins containing; fused on or other part: A 16-residue segment of the flexible loop of Bcl-xL (BCL2L1, Q07817; given as residues 35 to 50) set into the Bcl-2 loop region; His tag with TEV site from the pHis-TEV vector

Bcl-2 [6] = experiment: FP-based binding assay, Bcl-2

Mcl-1, sequence (Q07820 171-327): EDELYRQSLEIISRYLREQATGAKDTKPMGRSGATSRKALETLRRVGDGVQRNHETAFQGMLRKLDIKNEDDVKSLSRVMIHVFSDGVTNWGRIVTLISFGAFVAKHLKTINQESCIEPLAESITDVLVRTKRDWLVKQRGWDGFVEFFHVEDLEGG
Bcl-xL, sequence (Q07817 other isoform, or with tags, fused parts or gaps DEL45-85): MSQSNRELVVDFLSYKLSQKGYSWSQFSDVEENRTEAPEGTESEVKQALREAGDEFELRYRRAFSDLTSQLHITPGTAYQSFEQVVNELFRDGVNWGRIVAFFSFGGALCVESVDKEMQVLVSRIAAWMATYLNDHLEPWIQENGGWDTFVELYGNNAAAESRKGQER
T2 sequence (Q07820 whole entry): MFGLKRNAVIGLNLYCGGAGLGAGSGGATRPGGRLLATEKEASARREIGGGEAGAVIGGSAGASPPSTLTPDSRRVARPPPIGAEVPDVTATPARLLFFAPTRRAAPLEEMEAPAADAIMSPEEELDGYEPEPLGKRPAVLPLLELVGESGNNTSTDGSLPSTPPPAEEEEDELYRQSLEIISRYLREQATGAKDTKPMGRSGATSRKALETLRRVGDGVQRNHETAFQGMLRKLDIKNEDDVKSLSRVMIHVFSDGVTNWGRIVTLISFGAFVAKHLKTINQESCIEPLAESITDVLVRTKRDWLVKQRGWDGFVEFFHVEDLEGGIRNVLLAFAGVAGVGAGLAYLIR
T3 sequence (P10415 with tags, fused parts or gaps with the stated changes): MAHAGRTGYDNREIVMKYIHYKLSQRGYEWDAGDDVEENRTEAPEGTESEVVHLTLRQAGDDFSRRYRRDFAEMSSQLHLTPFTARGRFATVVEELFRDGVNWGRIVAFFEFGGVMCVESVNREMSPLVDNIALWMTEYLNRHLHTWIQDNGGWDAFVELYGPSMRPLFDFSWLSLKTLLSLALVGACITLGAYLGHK

O=C(O)CSc1cc(NS(=O)(=O)c2ccc(Br)cc2)c2ccccc2c1O [Compound 9, 2-((4-(4-Bromophenylsulfonamido)-1-hydroxynaphthalen-2-yl)thio)acetic acid]
fold lower affinity to Bcl-xL than to Mcl-1 (selectivity) (Bcl-xL): more than 50 fold | Ki (Bcl-xL; read-out: Bcl-xL Ki ± SD): 33 ± 4.33 µM | half-life at 1 μM [1]: 45 min | IC50 (AsPc1): 16.1 ± 4.2 µM | fold lower affinity to A1/Bfl-1 than to Mcl-1 (selectivity) (A1/Bfl-1): 11 fold | Ki (A1/Bfl-1; read-out: A1/Bfl-1 Ki ± SD): 5.33 ± 1 µM | IC50 (MiaPaCa-2): 12.5 ± 1.01 µM | tumor growth inhibition (BxPC-3 xenograft; day 19 (p<0.0001)): 65% | tumor growth inhibition (BxPC-3 xenograft; day 22 (p<0.003)): 56% | fold improved binding to Mcl-1 compared to 2 (Mcl-1): 7 fold | Ki (Mcl-1; FP and SPR based binding studies, read-out: Ki to Mcl-1): 0.49 µM | IC50 (Mcl-1; competitive FP, Flu-BID 2 nM, Mcl-1 90 nM, read-out: Mcl-1 IC50 ± SD): 1.87 ± 0.22 µM | Ki (Mcl-1; competitive FP, Ki calculated from IC50, read-out: Mcl-1 Ki ± SD): 0.49 ± 0.06 µM | apoptosis in MEF WT cells [2]: more than 60% | concentration from which BL-Noxa/cellular Mcl-1 interaction is blocked [3]: ≥ 10 µM | disruption of BL-Noxa/cellular Mcl-1 interaction, result in words [3]: effectively disrupted | IC50 [4]: 2.5 to 5 µM | Ki (Bcl-2 [5]): 23.8 ± 1.81 µM | fold lower affinity to Bcl-2 than to Mcl-1 (selectivity) (Bcl-2 [6]): more than 50 fold
